Experimental data reported in US20240391862A1, “(1,4,5-TRISUBSTITUTED-1H-PYRAZOL-3-YL)OXY-2-ALKOXY ALKYL ACIDS AND THEIR DERIVATIVES, THEIR SALTS AND THEIR USE AS HERBICIDAL AGENTS” (Bayer AKtiengesellschaft, priority 2021, published 2024).

Legend:
Assay in all cases: Post-emergence herbicidal effect, greenhouse pot test
ALOMY = type: in vivo, Alopecurus myosuroides; settings: visual rating about 3 weeks after treatment
In short: (§1)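 Greenhouse pot test: weeds and crops sown in sandy loam, sprayed post-emergence at one-leaf stage (2–3 weeks after sowing) with WP or EC formulations plus 0.5% additive at 600 l/ha water, rates 20–320 g/ha. Visual rating about 3 weeks later versus untreated controls (100% = dead, 0% = as control).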

VIOTR = type: in vivo, Viola tricolor; settings: for pest or weed control at 80 g/ha / pest or weed control at 320 g/ha: Viola tricolor, 504 h, read-out: Post-emergence effect against VIOTR in %
In short: as §1

AMARE = type: in vivo, Amaranthus retroflexus; settings: visual rating about 3 weeks after treatment
In short: as §1

VERPE = type: in vivo, Veronica persica; settings: for pest or weed control at 80 g/ha / pest or weed control at 320 g/ha: Veronica persica, 504 h, read-out: Post-emergence effect against VERPE in %
In short: as §1

DIGSA = type: in vivo, Digitaria sanguinalis; settings: visual rating about 3 weeks after treatment
In short: as §1

ECHCG = type: in vivo, Echinochloa crus-galli; settings: for pest or weed control at 80 g/ha / pest or weed control at 320 g/ha: read-out: Post-emergence effect against ECHCG in %
In short: as §1

MATIN = type: in vivo, Tripleurospermum inodorum
In short: as §1

PHBPU = type: in vivo, Ipomoea purpurea; settings: for pest or weed control at 80 g/ha / pest or weed control at 320 g/ha: Ipomoea purpurea, 504 h, read-out: Post-emergence effect against PHBPU in %
In short: as §1

SETVI = type: in vivo, Setaria viridis; settings: for pest or weed control at 80 g/ha / pest or weed control at 320 g/ha: Setaria viridis, 504 h, read-out: Post-emergence effect against SETVI in %
In short: as §1

POLCO = type: in vivo, Fallopia convolvulus
In short: as §1

ABUTH = type: in vivo, Abutilon theophrasti; settings: visual rating about 3 weeks after treatment; for pest or weed control at 80 g/ha / pest or weed control at 320 g/ha: Abutilon theophrasti, 504 h, read-out: Post-emergence effect against ABUTH
In short: as §1

AVEFA = type: in vivo, Avena fatua; settings: visual rating about 3 weeks after treatment
In short: as §1

KCHSC = type: in vivo
In short: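 Visual rating of activity against untreated plants (100% = plants died, 0% = no effect), done about 3 weeks after treatment. Compounds applied at 20–320 g/ha as aqueous spray (600 l/ha, 0.5% additive) from WP or EC formulations onto one-leaf-stage plants grown in sandy loam under greenhouse conditions.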

LOLRI = type: in vivo, Lolium rigidum; settings: for pest or weed control at 320 g/ha: Lolium rigidum, 504 h, read-out: Post-emergence effect against LOLRI in %
In short: as §1

[1] = Alopecurus myosuroides, 504 h, 320 g/ha, read-out: Post-emergence effect against ALOMY
[2] = Amaranthus retroflexus, 504 h, 320 g/ha, read-out: Post-emergence effect against AMARE
[3] = Digitaria sanguinalis, 504 h, 320 g/ha, read-out: Post-emergence effect against DIGSA
[4] = Echinochloa crus-galli, 504 h, 80 g/ha
[5] = Echinochloa crus-galli, 504 h, 320 g/ha
[6] = Tripleurospermum inodorum, 504 h, 320 g/ha, read-out: Post-emergence effect against MATIN in %
[7] = Fallopia convolvulus, 504 h, 320 g/ha, read-out: Post-emergence effect against POLCO in %
[8] = Avena fatua, 504 h, 320 g/ha, read-out: Post-emergence effect against AVEFA
[9] = 504 h, 320 g/ha, read-out: Post-emergence effect against KCHSC in %

COC(=O)CCOC(=O)C(OC)Oc1nn(-c2cc(F)ccc2F)c(-c2cncc(F)c2)c1C1CC1 (single isomer, unassigned) [Example I-79]
90%: Post-emergence effect against ALOMY (ALOMY; 320 g/ha) | Post-emergence effect against VIOTR in % (VIOTR; 20 g/ha) | Post-emergence effect against VIOTR in % (VIOTR; 80 g/ha) | Post-emergence effect against VIOTR in % (VIOTR; 320 g/ha) | Post-emergence effect against VERPE in % (VERPE; 20 g/ha) | Post-emergence effect against VERPE in % (VERPE; 80 g/ha) | Post-emergence effect against VERPE in % (VERPE; 320 g/ha) | Post-emergence effect against ECHCG in % (ECHCG; 80 g/ha) | Post-emergence effect against ECHCG in % (ECHCG; 320 g/ha) | Post-emergence effect against PHBPU in % (PHBPU; 20 g/ha) | Post-emergence effect against PHBPU in % (PHBPU; 80 g/ha) | Post-emergence effect against PHBPU in % (PHBPU; 320 g/ha) | Post-emergence effect against SETVI in % (SETVI; 20 g/ha) | Post-emergence effect against SETVI in % (SETVI; 80 g/ha) | Post-emergence effect against SETVI in % (SETVI; 320 g/ha) | Post-emergence effect against POLCO in % (POLCO; 80 g/ha) | Post-emergence effect against POLCO in % (POLCO; 320 g/ha) | Post-emergence effect against ABUTH (ABUTH; 320 g/ha) | Post-emergence effect against AVEFA (AVEFA; 80 g/ha) | Post-emergence effect against AVEFA (AVEFA; 320 g/ha) | Post-emergence effect against LOLRI in % (LOLRI; 80 g/ha) | Post-emergence effect against LOLRI in % (LOLRI; 320 g/ha)
80%: Post-emergence effect against ALOMY (ALOMY; 80 g/ha) | Post-emergence effect against AMARE (AMARE; 20 g/ha) | Post-emergence effect against AMARE (AMARE; 80 g/ha) | Post-emergence effect against AMARE (AMARE; 320 g/ha) | Post-emergence effect against DIGSA (DIGSA; 320 g/ha) | Post-emergence effect against ECHCG (ECHCG; 20 g/ha, visual rating about 3 weeks after treatment) | Post-emergence effect against MATIN in % (MATIN; 80 g/ha) | Post-emergence effect against MATIN in % (MATIN; 320 g/ha) | Post-emergence effect against ABUTH (ABUTH; 20 g/ha) | Post-emergence effect against ABUTH (ABUTH; 80 g/ha) | Post-emergence effect against KCHSC in % (KCHSC; 320 g/ha)

CCOC(=O)C(OCC)Oc1nn(-c2ccccc2F)c(-c2ccc(F)nc2)c1Cl (centres unmarked) [Example I-50]
80%: pest or weed control at 320 g/ha (ALOMY; [1]) | pest or weed control at 80 g/ha (VIOTR; 80 g/ha) | pest or weed control at 320 g/ha (AMARE; [2]) | pest or weed control at 320 g/ha (MATIN; [6]) | pest or weed control at 320 g/ha (POLCO; [7]) | pest or weed control at 80 g/ha (ABUTH; 80 g/ha) | pest or weed control at 320 g/ha (KCHSC; [9])
90%: pest or weed control at 320 g/ha (VIOTR; 320 g/ha) | pest or weed control at 80 g/ha (VERPE; 80 g/ha) | pest or weed control at 320 g/ha (VERPE; 320 g/ha) | pest or weed control at 320 g/ha (DIGSA; [3]) | pest or weed control at 20 g/ha (ECHCG; Echinochloa crus-galli, 504 h, 20 g/ha, visual rating about 3 weeks after treatment, read-out: Post-emergence effect against ECHCG) | pest or weed control at 80 g/ha (ECHCG; [4]) | pest or weed control at 320 g/ha (ECHCG; [5]) | pest or weed control at 80 g/ha (PHBPU; 80 g/ha) | pest or weed control at 320 g/ha (PHBPU; 320 g/ha) | pest or weed control at 80 g/ha (SETVI; 80 g/ha) | pest or weed control at 320 g/ha (SETVI; 320 g/ha) | pest or weed control at 320 g/ha (ABUTH; 320 g/ha) | pest or weed control at 320 g/ha (AVEFA; [8]) | pest or weed control at 320 g/ha (LOLRI; 320 g/ha)

COC(=O)C(OC)Oc1nn(-c2ccccc2F)c(-c2ccc(F)nc2)c1C(F)(F)F (centres unmarked) [Example I-70]
80%: pest or weed control at 80 g/ha (ALOMY; Alopecurus myosuroides, 504 h, 80 g/ha, read-out: Post-emergence effect against ALOMY) | pest or weed control at 80 g/ha (AMARE; Amaranthus retroflexus, 504 h, 80 g/ha, read-out: Post-emergence effect against AMARE) | pest or weed control at 320 g/ha (AMARE; [2]) | pest or weed control at 80 g/ha (DIGSA; Digitaria sanguinalis, 504 h, 80 g/ha, read-out: Post-emergence effect against DIGSA) | pest or weed control at 80 g/ha (MATIN; Tripleurospermum inodorum, 504 h, 80 g/ha, read-out: Post-emergence effect against MATIN in %) | pest or weed control at 320 g/ha (MATIN; [6]) | pest or weed control at 80 g/ha (SETVI; 80 g/ha) | pest or weed control at 320 g/ha (SETVI; 320 g/ha) | pest or weed control at 20 g/ha (POLCO; Fallopia convolvulus, 504 h, 20 g/ha, read-out: Post-emergence effect against POLCO in %) | pest or weed control at 80 g/ha (POLCO; Fallopia convolvulus, 504 h, 80 g/ha, read-out: Post-emergence effect against POLCO in %) | pest or weed control at 320 g/ha (POLCO; [7]) | pest or weed control at 80 g/ha (ABUTH; 80 g/ha) | pest or weed control at 20 g/ha (KCHSC; 504 h, 20 g/ha, read-out: Post-emergence effect against KCHSC in %)
90%: pest or weed control at 320 g/ha (ALOMY; [1]) | pest or weed control at 80 g/ha (VIOTR; 80 g/ha) | pest or weed control at 320 g/ha (VIOTR; 320 g/ha) | pest or weed control at 80 g/ha (VERPE; 80 g/ha) | pest or weed control at 320 g/ha (VERPE; 320 g/ha) | pest or weed control at 320 g/ha (DIGSA; [3]) | pest or weed control at 80 g/ha (ECHCG; [4]) | pest or weed control at 320 g/ha (ECHCG; [5]) | pest or weed control at 80 g/ha (PHBPU; 80 g/ha) | pest or weed control at 320 g/ha (PHBPU; 320 g/ha) | pest or weed control at 320 g/ha (ABUTH; 320 g/ha) | pest or weed control at 80 g/ha (AVEFA; Avena fatua, 504 h, 80 g/ha, read-out: Post-emergence effect against AVEFA) | pest or weed control at 320 g/ha (AVEFA; [8]) | pest or weed control at 80 g/ha (KCHSC; 504 h, 80 g/ha, read-out: Post-emergence effect against KCHSC in %) | pest or weed control at 320 g/ha (KCHSC; [9]) | pest or weed control at 320 g/ha (LOLRI; 320 g/ha)
